Experimental data published in paper PMC7862066, “A novel UBE2T inhibitor suppresses Wnt/β-catenin signaling hyperactivation and gastric cancer progression by blocking RACK1 ubiquitination” (Oncogene, 2020).

Molecular target: T1, UBE2T (Homo sapiens, UniProt Q9NPD8)
T1 construct: fluorescently labelled UBE2T protein for MST
Test: microscale thermophoresis
Format: binding
Conditions: fluorescently labelled UBE2T; compound titrated 31 nM to 500 μM

T1 sequence (Q9NPD8 whole entry): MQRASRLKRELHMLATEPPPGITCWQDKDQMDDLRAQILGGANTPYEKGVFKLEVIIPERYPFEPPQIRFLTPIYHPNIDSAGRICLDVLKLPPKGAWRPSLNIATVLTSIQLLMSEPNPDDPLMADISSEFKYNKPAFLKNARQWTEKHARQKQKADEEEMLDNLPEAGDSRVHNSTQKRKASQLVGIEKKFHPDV

Kd: 50.5 µM
SMILES: NS(=O)(=O)c1ccc(NC(=O)c2c(O)c3c4c(sc3[nH]c2=O)CCCC4)cc1 [M435-1279]
